Six molecules from patent US9708316B2 (BRISTOL-MYERS SQUIBB COMPANY, priority 2014, dated 2017) can be followed below.

One experiment deals with HIS-TGFβR2 WT (Homo sapiens, UniProt P37173). In words: HTRF probe-displacement assay, HIS-TGFβR2 WT. The experiment is classed as binding.
The next experiment has as its target T1, HIS-TGFβR1 T204D (Homo sapiens, UniProt P36897, T204D).
T1 sequence (P36897 34-503 T204D): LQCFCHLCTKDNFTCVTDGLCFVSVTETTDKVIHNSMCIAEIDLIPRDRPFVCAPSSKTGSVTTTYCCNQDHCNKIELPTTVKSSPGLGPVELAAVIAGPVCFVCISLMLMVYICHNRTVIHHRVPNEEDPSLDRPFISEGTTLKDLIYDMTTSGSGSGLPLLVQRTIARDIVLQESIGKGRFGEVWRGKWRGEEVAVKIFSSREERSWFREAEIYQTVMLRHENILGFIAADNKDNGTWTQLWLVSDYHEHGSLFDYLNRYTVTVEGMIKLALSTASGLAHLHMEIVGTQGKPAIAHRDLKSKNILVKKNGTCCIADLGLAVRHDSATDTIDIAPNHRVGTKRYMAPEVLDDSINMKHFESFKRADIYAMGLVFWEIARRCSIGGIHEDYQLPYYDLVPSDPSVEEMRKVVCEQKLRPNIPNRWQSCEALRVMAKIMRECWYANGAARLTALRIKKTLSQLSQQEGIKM
In words: HTRF probe-displacement assay, HIS-TGFβR1 T204D. The experiment is classed as binding. The note with it: read-out: TGFβR1 (μM) IC50. Background: TR-FRET usually uses a lanthanide donor and a delayed reading to cut background.

Each structure is given as a SMILES string. Bounds are passed on as bounds.

Sequence of HIS-TGFβR2 WT (P37173 23-567): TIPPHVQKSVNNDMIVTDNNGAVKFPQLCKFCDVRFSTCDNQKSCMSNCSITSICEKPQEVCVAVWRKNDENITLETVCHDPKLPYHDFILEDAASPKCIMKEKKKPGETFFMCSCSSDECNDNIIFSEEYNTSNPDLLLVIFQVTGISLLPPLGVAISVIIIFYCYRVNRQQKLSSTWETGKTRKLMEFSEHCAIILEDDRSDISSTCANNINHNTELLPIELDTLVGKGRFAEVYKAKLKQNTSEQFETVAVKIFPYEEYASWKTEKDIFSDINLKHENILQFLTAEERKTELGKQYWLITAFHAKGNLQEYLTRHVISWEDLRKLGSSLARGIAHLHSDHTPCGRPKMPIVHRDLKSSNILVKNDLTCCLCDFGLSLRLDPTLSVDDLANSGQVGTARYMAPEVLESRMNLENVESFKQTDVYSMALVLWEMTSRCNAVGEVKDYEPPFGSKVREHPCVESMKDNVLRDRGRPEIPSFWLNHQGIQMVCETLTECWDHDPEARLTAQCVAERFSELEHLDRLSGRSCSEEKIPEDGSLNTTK

Usually IC50 stands for the point on the concentration scale where inhibition reaches its midpoint. On to `CC(=O)Nc1cc(-c2[nH]c3c(C(O)C(F)F)ccnc3c2-c2cccc(C(F)F)n2)ccn1` (stereo not drawn) [Example 148, N-{4-[7-(2,2-Difluoro-1-hydroxyethyl)-3-[6-(difluoromethyl)pyridin-2-yl]-1H-pyrrolo[3,2-b]pyridin-2-yl]pyridin-2-yl}acetamide], for which the figures for the IC50 on HIS-TGFβR2 WT and at HIS-TGFβR1 T204D were 0.484 µM and 0.001 µM, respectively.
Regarding `COc1ccc(-c2c(-c3ccnc(NC(C)=O)c3)[nH]c3cc(N4CC[C@H](O)[C@@H](O)C4)cnc23)nc1` [Example 166, N-(4-(6-((3S,4S)-3,4-Dihydroxypiperidin-l-yl)-3-(5-methoxypyridin-2-yl)-1H-pyrrolo[3,2-b]pyridin-2-yl)pyridin-2-yl)acetamide], the figures for the IC50 at HIS-TGFβR2 WT and on HIS-TGFβR1 T204D were over 15 µM and 0.0132 µM, respectively.
On to `CC(=O)Nc1cc(-c2[nH]c3c(C4CCN(C)CC4)ccnc3c2-c2cccc(C)n2)ccn1` [Example 138, N-{4-[7-(1-Methylpiperidin-4-yl)-3-(6-methylpyridin-2-yl)-1H-pyrrolo[3,2-b]pyridin-2-yl]pyridin-2-yl}acetamide], for which the IC50 at HIS-TGFβR2 WT is over 15 µM; at HIS-TGFβR1 T204D, 0.2 µM.
Consider `COc1cnc2c(-c3cccc(Cl)n3)c(-c3ccnc(NC(C)=O)c3)[nH]c2c1` [Example 48, N-{4-[3-(6-Chloropyridin-2-yl)-6-methoxy-1H-pyrrolo[3,2-b]pyridin-2-yl]pyridin-2-yl}acetamide], for which the IC50 on HIS-TGFβR2 WT was 0.076 µM; on HIS-TGFβR1 T204D it was 0.001 µM.
On to `COc1ccc(-c2c(-c3ccnc(NC(C)=O)c3)[nH]c3cc(OC)cnc23)nc1` [Example 284, N-(4-(6-Methoxy-3-(5-methoxypyridin-2-yl)-1H-pyrrolo[3,2-b]pyridin-2-yl)pyridin-2-yl)acetamide], for which the IC50 at HIS-TGFβR2 WT turned out to be 5.22 µM; on HIS-TGFβR1 T204D, 0.003 µM.
Turning to `CC(=O)Nc1cc(-c2[nH]c3cc(Cl)cnc3c2-c2cccc(F)n2)ccn1` [Example 45, N-{4-[6-Chloro-3-(6-fluoropyridin-2-yl)-1H-pyrrolo[3,2-b]pyridin-2-yl]pyridin-2-yl}acetamide], the IC50 at HIS-TGFβR2 WT came out at 0.11 µM; on HIS-TGFβR1 T204D it was 0.003 µM.
